Assay results taken from BindingDB's records for doi:10.1002/cmdc.201100077 (Zydus Research Centre, 2011).

Experiments:
[1] = biological target: T1, Tyrosine-protein phosphatase non-receptor type 1 (Homo sapiens, UniProt P18031); assay: Enzyme Assays
T1 sequence (P18031 whole entry): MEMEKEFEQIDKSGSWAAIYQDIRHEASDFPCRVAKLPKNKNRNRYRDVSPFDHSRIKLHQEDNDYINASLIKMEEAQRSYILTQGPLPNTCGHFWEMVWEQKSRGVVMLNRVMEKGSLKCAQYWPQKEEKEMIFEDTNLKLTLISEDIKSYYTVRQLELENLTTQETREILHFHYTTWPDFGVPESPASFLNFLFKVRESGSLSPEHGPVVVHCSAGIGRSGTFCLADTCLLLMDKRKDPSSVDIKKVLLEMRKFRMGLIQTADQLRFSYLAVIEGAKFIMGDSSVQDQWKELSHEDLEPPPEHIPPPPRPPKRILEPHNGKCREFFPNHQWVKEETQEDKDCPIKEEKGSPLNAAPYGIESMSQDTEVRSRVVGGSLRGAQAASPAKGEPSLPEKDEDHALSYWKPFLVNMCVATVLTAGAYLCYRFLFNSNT
Experimental: (§1) The in vitro enzyme inhibitory activity was evaluated by using the pNPP assay. Para-nitrophenylphosphate (pNPP) and test compounds were added to assay buffer, and reactions were initiated by the addition of PTP1B or TCPTP (10-100 nM).

[2] = biological target: T2, Tyrosine-protein phosphatase non-receptor type 2 (Homo sapiens, UniProt P17706); assay: Enzyme Assays
T2 sequence (P17706 whole entry): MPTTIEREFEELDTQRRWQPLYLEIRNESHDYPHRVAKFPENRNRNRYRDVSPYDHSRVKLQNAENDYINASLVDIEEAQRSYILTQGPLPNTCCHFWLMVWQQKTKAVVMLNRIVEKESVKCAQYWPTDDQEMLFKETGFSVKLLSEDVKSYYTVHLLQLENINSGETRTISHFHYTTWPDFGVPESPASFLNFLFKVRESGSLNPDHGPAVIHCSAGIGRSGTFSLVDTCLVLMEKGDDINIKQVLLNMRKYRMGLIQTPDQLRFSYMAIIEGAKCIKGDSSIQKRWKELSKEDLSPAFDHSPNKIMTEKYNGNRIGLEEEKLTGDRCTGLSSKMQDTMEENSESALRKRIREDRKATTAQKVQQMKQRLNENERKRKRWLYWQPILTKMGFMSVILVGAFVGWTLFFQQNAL
Experimental: as §1

Compound `O=C(c1ccccc1)C(Cc1ccc2cc(Br)c(C(F)(F)P(=O)(O)O)cc2c1)(Cc1ccc2cc(Br)c(C(F)(F)P(=O)(O)O)cc2c1)n1nnc2ccccc21` has an IC50 [1] of 5 nM and an IC50 [2] of 580 nM.

`O=C(c1ccccc1)C(Cc1ccc(C(F)(F)P(=O)(O)O)c(Br)c1)(Cc1ccc2cc(Br)c(C(F)(F)P(=O)(O)O)cc2n1)n1nnc2ccccc21` (stereo not drawn) [({2-[2-(1H-1,2,3-benzotriazol-1-yl)-2-({3-bromo-4-[difluoro(phosphono)methyl]phenyl}methyl)-3-oxo-3-phenylpropyl]-6-bromoquinolin-7-yl}difluoromethyl)phosphonic acid (10l)] was tested, and the IC50 [1] was 21 nM.

`O=C(c1ccccc1)C(Cc1ccc2cc(Br)c(C(F)(F)P(=O)(O)O)cc2n1)(Cc1ccc2cc(Br)c(C(F)(F)P(=O)(O)O)cc2n1)n1nnc2ccccc21` [({2-[2-(1H-1,2,3-benzotriazol-1-yl)-2-({6-bromo-7-[difluoro(phosphono)methyl]quinolin-2-yl}methyl)-3-oxo-3-phenylpropyl]-6-bromoquinolin-7-yl}difluoromethyl)phosphonic acid (10n)] showed an IC50 [1] of 5 nM and an IC50 [2] of 101 nM.

With `N[S+]([O-])C(F)(F)c1ccc(CC(Cc2ccc3cc(Br)c(C(F)(F)P(=O)(O)O)cc3n2)(C(=O)c2ccccc2)n2nnc3ccccc32)cc1Br` (stereo not drawn) [({2-[2-({4-[(aminosulfinyl)difluoromethyl]-3-bromophenyl}methyl)-2-(1H-1,2,3-benzotriazol-1-yl)-3-oxo-3-phenylpropyl]-6-bromoquinolin-7-yl}difluoromethyl)phosphonic acid (10m)] the IC50 [1] was 22 nM.

`N[S+]([O-])C(F)(F)c1cc2nc(CC(Cc3ccc4cc(Br)c(C(F)(F)P(=O)(O)O)cc4n3)(C(=O)c3ccccc3)n3nnc4ccccc43)ccc2cc1Br` (stereo not drawn) [({2-[2-({7-[(aminosulfinyl)difluoromethyl]-6-bromoquinolin-2-yl}methyl)-2-(1H-1,2,3-benzotriazol-1-yl)-3-oxo-3-phenylpropyl]-6-bromoquinolin-7-yl}difluoromethyl)phosphonic acid (10o)] gave an IC50 [1] of 4 nM and an IC50 [2] of 82 nM.

For `O=C(c1ccccc1)C(Cc1ccc(C(F)(F)P(=O)(O)O)c(Br)c1)(Cc1ccc2cc(Br)c(C(F)(F)P(=O)(O)O)cc2c1)n1nnc2ccccc21` (stereo not drawn) [({7-[2-(1H-1,2,3-benzotriazol-1-yl)-2-({3-bromo-4-[difluoro(phosphono)methyl]phenyl}methyl)-3-oxo-3-phenylpropyl]-3-bromonaphthalen-2-yl}difluoromethyl)phosphonic acid (10b)], the IC50 [1] was 20 nM and the IC50 [2] was 201 nM.

`O=C(c1ccccc1)C(Cc1ccc(C(F)(F)P(=O)(O)O)cc1)(Cc1ccc2cc(Br)c(C(F)(F)P(=O)(O)O)cc2c1)n1nnc2ccccc21` (stereo not drawn) [({7-[2-(1H-1,2,3-benzotriazol-1-yl)-2-({4-[difluoro(phosphono)methyl]phenyl}methyl)-3-oxo-3-phenylpropyl]-3-bromonaphthalen-2-yl}difluoromethyl)phosphonic acid (10a)] showed an IC50 [1] of 46 nM.

Work on `O=C(c1ccccc1)C(Cc1ccc(Br)c(C(F)(F)P(=O)(O)O)c1)(Cc1ccc2cc(Br)c(C(F)(F)P(=O)(O)O)cc2c1)n1nnc2ccccc21` (stereo not drawn) [({7-[2-(1H-1,2,3-benzotriazol-1-yl)-2-({4-bromo-3-[difluoro(phosphono)methyl]phenyl}methyl)-3-oxo-3-phenylpropyl]-3-bromonaphthalen-2-yl}difluoromethyl)phosphonic acid (10c)] yielded an IC50 [1] of 404 nM.

`O=C(c1ccccc1)C(Cc1ccc2cc(Br)c(C(F)(F)P(=O)(O)O)cc2c1)(Cc1ccc2cc(Br)c(C(F)(F)P(=O)(O)O)cc2n1)n1nnc2ccccc21` (stereo not drawn) [({7-[2-(1H-1,2,3-benzotriazol-1-yl)-2-({6-bromo-7-[difluoro(phosphono)methyl]quinolin-2-yl}methyl)-3-oxo-3-phenylpropyl]-3-bromonaphthalen-2-yl}difluoromethyl)phosphonic acid (10i)] showed an IC50 [1] of 3 nM and an IC50 [2] of 90 nM.

With `O=C1CC(c2ccc(CC(Cc3ccc4cc(Br)c(C(F)(F)P(=O)(O)O)cc4c3)(C(=O)c3ccccc3)n3nnc4ccccc43)cc2F)S(=O)(=O)N1` (stereo not drawn) [({7-[2-(1H-1,2,3-benzotriazol-1-yl)-2-{[3-fluoro-4-(1,1,3-trioxo-1λ⁶,2-thiazolidin-5-yl)phenyl]methyl}-3-oxo-3-phenylpropyl]-3-bromonaphthalen-2-yl}difluoromethyl)phosphonic acid (10g)] the IC50 [1] was 919 nM.

`Cc1cc(CC(Cc2ccc3cc(Br)c(C(F)(F)P(=O)(O)O)cc3c2)(C(=O)c2ccccc2)n2nnc3ccccc32)ccc1C1CC(=O)NS1(=O)=O` (stereo not drawn) [({7-[2-(1H-1,2,3-benzotriazol-1-yl)-2-{[3-methyl-4-(1,1,3-trioxo-1λ⁶,2-thiazolidin-5-yl)phenyl]methyl}-3-oxo-3-phenylpropyl]-3-bromonaphthalen-2-yl}difluoromethyl)phosphonic acid (10f)] showed an IC50 [1] of 924 nM.

`O=C1CC(c2ccc(CC(Cc3ccc4cc(Br)c(C(F)(F)P(=O)(O)O)cc4c3)(C(=O)c3ccccc3)n3nnc4ccccc43)cc2)S(=O)(=O)N1` (stereo not drawn) [({7-[2-(1H-1,2,3-benzotriazol-1-yl)-3-oxo-3-phenyl-2-{[4-(1,1,3-trioxo-1λ⁶,2-thiazolidin-5-yl)phenyl]methyl}propyl]-3-bromonaphthalen-2-yl}difluoromethyl)phosphonic acid (10e)] showed an IC50 [1] of 930 nM.

`N[S+]([O-])C(F)(F)c1ccc(CC(Cc2ccc3cc(Br)c(C(F)(F)P(=O)(O)O)cc3c2)(C(=O)c2ccccc2)n2nnc3ccccc32)cc1Br` (stereo not drawn) [({7-[2-({4-[(aminosulfinyl)difluoromethyl]-3-bromophenyl}methyl)-2-(1H-1,2,3-benzotriazol-1-yl)-3-oxo-3-phenylpropyl]-3-bromonaphthalen-2-yl}difluoromethyl)phosphonic acid (10d)] was tested, and the IC50 [1] was 19 nM and the IC50 [2] was 192 nM.

`N[S+]([O-])C(F)(F)c1cc2cc(CC(Cc3ccc4cc(Br)c(C(F)(F)P(=O)(O)O)cc4c3)(C(=O)c3ccccc3)n3nnc4ccccc43)ccc2cc1Br` (stereo not drawn) [({7-[2-({7-[(aminosulfinyl)difluoromethyl]-6-bromonaphthalen-2-yl}methyl)-2-(1H-1,2,3-benzotriazol-1-yl)-3-oxo-3-phenylpropyl]-3-bromonaphthalen-2-yl}difluoromethyl)phosphonic acid (10j)] was tested, and the IC50 [1] was 4 nM and the IC50 [2] was 480 nM.

Compound `N[S+]([O-])C(F)(F)c1cc2nc(CC(Cc3ccc4cc(Br)c(C(F)(F)P(=O)(O)O)cc4c3)(C(=O)c3ccccc3)n3nnc4ccccc43)ccc2cc1Br` (stereo not drawn) [({7-[2-({7-[(aminosulfinyl)difluoromethyl]-6-bromoquinolin-2-yl}methyl)-2-(1H-1,2,3-benzotriazol-1-yl)-3-oxo-3-phenylpropyl]-3-bromonaphthalen-2-yl}difluoromethyl)phosphonic acid (10k)] has an IC50 [1] of 6 nM and an IC50 [2] of 185 nM.
